Measurements published in patent US20080070865A1, “TRIPHENYLPHOSPHINE OXIDE DERIVATIVES AND USES THEREOF” (Redpoint Bio Corporation, priority 2006, published 2008).

Target: T1, human TRPM5 ion channel (Homo sapiens, UniProt Q9NZQ8)
T1 construct: expressed in transfected cells
T1 sequence (Q9NZQ8 1-1165): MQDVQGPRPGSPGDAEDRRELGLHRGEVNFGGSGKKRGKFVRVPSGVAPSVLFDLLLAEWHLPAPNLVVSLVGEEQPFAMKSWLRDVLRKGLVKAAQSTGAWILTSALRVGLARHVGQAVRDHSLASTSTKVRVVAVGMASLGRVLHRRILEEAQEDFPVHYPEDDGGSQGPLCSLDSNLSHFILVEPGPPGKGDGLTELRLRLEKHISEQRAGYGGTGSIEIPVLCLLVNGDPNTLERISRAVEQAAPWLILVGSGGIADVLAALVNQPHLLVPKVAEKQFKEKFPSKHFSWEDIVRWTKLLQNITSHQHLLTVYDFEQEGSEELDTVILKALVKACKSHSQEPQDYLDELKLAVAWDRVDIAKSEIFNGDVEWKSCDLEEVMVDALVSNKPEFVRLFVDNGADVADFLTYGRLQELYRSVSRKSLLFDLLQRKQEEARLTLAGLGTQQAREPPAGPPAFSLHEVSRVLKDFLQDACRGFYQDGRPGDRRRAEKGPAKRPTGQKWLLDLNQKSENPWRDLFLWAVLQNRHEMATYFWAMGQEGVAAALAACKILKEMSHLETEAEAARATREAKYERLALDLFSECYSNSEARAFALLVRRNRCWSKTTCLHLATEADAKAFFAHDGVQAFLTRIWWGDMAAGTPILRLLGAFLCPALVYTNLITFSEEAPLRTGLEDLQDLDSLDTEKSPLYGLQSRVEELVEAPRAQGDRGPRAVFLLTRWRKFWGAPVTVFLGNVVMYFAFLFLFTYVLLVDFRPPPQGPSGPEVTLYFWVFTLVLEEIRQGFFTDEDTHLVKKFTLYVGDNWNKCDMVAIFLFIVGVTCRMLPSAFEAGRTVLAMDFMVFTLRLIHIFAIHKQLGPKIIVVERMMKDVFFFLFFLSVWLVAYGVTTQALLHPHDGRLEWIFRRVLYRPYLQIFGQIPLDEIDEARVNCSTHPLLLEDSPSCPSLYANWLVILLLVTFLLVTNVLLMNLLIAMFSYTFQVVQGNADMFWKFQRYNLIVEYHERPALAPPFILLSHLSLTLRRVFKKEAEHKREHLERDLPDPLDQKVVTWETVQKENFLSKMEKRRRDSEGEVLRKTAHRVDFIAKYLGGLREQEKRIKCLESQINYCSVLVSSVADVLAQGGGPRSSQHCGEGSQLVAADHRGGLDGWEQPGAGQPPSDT
Test: TRPM5 FLIPR membrane potential assay
Format: cell-based
Conditions: HEK293 cells stably expressing human TRPM5, membrane potential dye, stimulation with 3 μM ATP
Protocol: The activity of human TRPM5 ion channel was measured in live cells on a fluorescent imaging plate reader (FLIPR). The basis of the assay (shown in FIG. 1) is the calcium-dependent activation of the ion channel which occurs by activation of a G-protein coupled receptor (GPCR). GPCR activation by an appropriate agonist causes a transient increase in […] Ca^2+ ion concentration which in turn causes the ion channel to open, letting in Na^+ ions. This influx causes a change in the membrane potential of the cell which can be monitored as a change in the fluorescent signal from voltage-dependent (membrane potential) fluorescent dyes. […] For the screening assay, the human TRPM5 gene was cloned, put into HEK293 cells, and a stable, high expression clone was used for screening. Cells were grown in standard media at 37° C. The day before screening, the cells were removed from flasks and added to 384 well clear bottom plates (8K cells in 20 μL/well). On the assay day, 20 μL of membrane potential dye (Part No. R8123, Molecular Devices Corp.) was added to the cells and dye was allowed to be taken up, i.e., load, into the cells for 1 hr at 37° C. […] The assay was started by addition of 10 μL of solution from the compound plate into the cell plate. During this process, continuous fluorescent recordings were made simultaneously for all wells. After addition of the compound solution, the tips were automatically washed and a stimulation solution of 3 μM ATP (an agonist for an endogenous purinurgic GPCR, was added to all wells of the cell plate. The height of the response was calculated and percent inhibition values, versus negative control wells, was calculated for the test samples. Unless otherwise indicated, the data in the table below were determined using the three assays described above, providing percent inhibition data at 10 μM.

| SMILES | IC50 [µM] |
| --- | --- |
| O=P(c1ccccc1)(c1ccccc1)c1ccc(O)cc1 [Example 3] | 5 |
| Nc1ccccc1P(=O)(c1ccccc1)c1ccccc1 [Example 4] | 5 |
| COc1ccccc1P(=O)(c1ccccc1)c1ccccc1 [Example 5] | > 100 |
| CN(C)c1ccc(P(=O)(c2ccc(N(C)C)cc2)c2ccc(N(C)C)cc2)cc1 [Example 6] | > 100 |

Second part, the compound after the results:

| IC50 [µM] | SMILES |
| --- | --- |
| 5 | O=P(c1ccccc1)(c1ccccc1)c1ccccc1 [Example 1] |
| 5 | O=P(c1ccccc1)(c1ccccc1)c1ccccc1O [Example 2] |
